Assay results from patent US7902181B2, “Compounds 010” (AstraZeneca AB, priority 2007, dated 2011).
Where a name gives a salt, the structure may show the parent alone.

Molecular target: Recombinant Human (rh) DPP1 (Homo sapiens, UniProt P53634)
Experiment: Fluorescence Assay for Recombinant Human (rh) DPP1
Type: biochemical
Conditions: rhDPP1; substrate H-Gly-Arg-AMC; pH5.0; 30 min pre-incubation, 60 min reaction at 22° C.; highest concentration 10 μM; read-out: DPP1 activity, pIC50 (converted)
Outline: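 Release of AMC from 100 μM H-Gly-Arg-AMC by rhDPP1 ([…]) in 25 mM piperazine pH 5.0, 50 mM NaCl, 5 mM DTT, 0.01% Triton X-100, 1% DMSO, 22 °C. Inhibitors (12-point half-log, top 10 μM) preincubated 30 min, reaction 60 min, fluorescence at 350/450 nm; pIC50 from 4-parameter logistic fit.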

Sequence of Recombinant Human (rh) DPP1 (P53634 25-463): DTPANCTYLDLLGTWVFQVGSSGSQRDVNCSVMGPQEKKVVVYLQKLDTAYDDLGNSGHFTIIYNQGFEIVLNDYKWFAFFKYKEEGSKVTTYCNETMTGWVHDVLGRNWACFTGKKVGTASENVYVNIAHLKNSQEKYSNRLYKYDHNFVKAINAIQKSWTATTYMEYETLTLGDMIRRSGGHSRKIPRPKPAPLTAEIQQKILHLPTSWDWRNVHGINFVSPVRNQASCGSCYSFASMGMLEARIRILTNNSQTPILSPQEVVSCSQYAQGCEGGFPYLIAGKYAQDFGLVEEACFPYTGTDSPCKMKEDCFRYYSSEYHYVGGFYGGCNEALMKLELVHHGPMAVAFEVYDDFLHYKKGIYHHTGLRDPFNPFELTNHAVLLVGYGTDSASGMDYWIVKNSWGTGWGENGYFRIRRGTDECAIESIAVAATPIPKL

Compound	IC50
N#Cc1cccc(-c2ccc(C[C@@H](C#N)NC(=O)[C@@H]3CCCCN3)cn2)c1 [Example 78, (S)-N-((S)-1-Cyano-2-(6-(3-cyanophenyl)pyridin-3-yl)ethyl)piperidine-2-carboxamide Trifluoroacetate]	0.1 µM
N#C[C@H](Cc1ccc(-c2ccccc2O)nc1)NC(=O)[C@@H]1CCCCN1 [Example 79, (S)-N-((S)-1-Cyano-2-(6-(2-hydroxyphenyl)pyridin-3-yl)ethyl)piperidine-2-carboxamide]	0.316 µM
CN(C)S(=O)(=O)c1ccc(-c2ccc(C[C@@H](C#N)NC(=O)[C@@H]3CCCCN3)cn2)cc1 [Example 80, (S)-N-((S)-1-Cyano-2-(6-(4-(N,N-dimethylsulfamoyl)phenyl)pyridin-3-yl)ethyl)piperidine-2-carboxamide Trifluoroacetate]	0.0316 µM
N#C[C@H](Cc1ccc(-c2ccc(C(F)(F)F)cc2)cc1)NC(=O)[C@@H]1CCCCN1 [Example 82, (S)-N-((S)-1-Cyano-2-(4′-(trifluoromethyl)biphenyl-4-yl)ethyl)piperidine-2-carboxamide Trifluoroacetate]	0.00501 µM
N#C[C@H](Cc1ccc(-c2cccc(C(=O)N3CCCCC3)c2)cc1)NC(=O)[C@@H]1CCCCN1 [Example 83, (S)-N-((S)-1-Cyano-2-(3′-(piperidine-1-carbonyl)biphenyl-4-yl)ethyl)piperidine-2-carboxamide Trifluoroacetate]	0.2 µM
N#C[C@H](Cc1ccc(-c2cccc(C(=O)Nc3nccs3)c2)cc1)NC(=O)[C@@H]1CCCCN1 [Example 84, (S)-N-((S)-1-Cyano-2-(3′-(thiazol-2-ylcarbamoyl)biphenyl-4-yl)ethyl)piperidine-2-carboxamide Trifluoroacetate]	0.0251 µM
N#CCCNC(=O)c1cccc(-c2ccc(C[C@@H](C#N)NC(=O)[C@@H]3CCCCN3)cc2)c1 [Example 85, (S)-N-((S)-1-Cyano-2-(3′-(2-cyanoethylcarbamoyl)biphenyl-4-yl)ethyl)piperidine-2-carboxamide]	0.126 µM
N#C[C@H](Cc1ccc(-c2cccc(CC(N)=O)c2)cc1)NC(=O)[C@@H]1CCCCN1 [Example 86, (S)-N-((S)-2-(3′-(2-amino-2-oxoethyl)biphenyl-4-yl)-1-cyanoethyl)piperidine-2-carboxamide Trifluoroacetate]	0.0794 µM
CN(C)S(=O)(=O)c1cccc(-c2ccc(C[C@@H](C#N)NC(=O)[C@@H]3CCCCN3)cc2)c1 [Example 87, (S)-N-((S)-1-Cyano-2-(3′-(N,N-dimethylsulfamoyl)biphenyl-4-yl)ethyl)piperidine-2-carboxamide Trifluoroacetate]	0.0501 µM
N#C[C@H](Cc1ccc(-c2cccc(S(=O)(=O)N3CCCC3)c2)cc1)NC(=O)[C@@H]1CCCCN1 [Example 88, (S)-N-((S)-1-Cyano-2-(3′-(pyrrolidin-1-ylsulfonyl)biphenyl-4-yl)ethyl)piperidine-2-carboxamide Trifluoroacetate]	0.0631 µM
CS(=O)(=O)NCc1cccc(-c2ccc(C[C@@H](C#N)NC(=O)[C@@H]3CCCCN3)cc2)c1 [Example 89, (S)-N-((S)-1-Cyano-2-(3′-(methylsulfonamidomethyl)biphenyl-4-yl)ethyl)piperidine-2-carboxamide Trifluoroacetate]	0.0631 µM
CC(=O)NCc1cccc(-c2ccc(C[C@@H](C#N)NC(=O)[C@@H]3CCCCN3)cc2)c1 [Example 90, (S)-N-((S)-2-(3′-(Acetamidomethyl)biphenyl-4-yl)-1-cyanoethyl)-piperidine-2-carboxamide Trifluoroacetate]	0.126 µM
N#CC1CCN(S(=O)(=O)c2ccc(-c3ccc(C[C@@H](C#N)NC(=O)[C@@H]4CCCCN4)cc3)cc2)CC1 [Example 91, (S)-N-((S)-1-Cyano-2-(4′-(4-cyanopiperidin-1-ylsulfonyl)biphenyl-4-yl)ethyl)piperidine-2-carboxamide Trifluoroacetate]	0.0126 µM
